{"source": "ChEMBL document CHEMBL5465560", "about": "“Selectivity Literature for EUbOPEN Chemogenomic Library” (2024)", "key": {"[1]": {"biological_target": "T1, Ephrin type-A receptor 1 (Homo sapiens) (UniProt P21709)", "T1 sequence (whole entry)": "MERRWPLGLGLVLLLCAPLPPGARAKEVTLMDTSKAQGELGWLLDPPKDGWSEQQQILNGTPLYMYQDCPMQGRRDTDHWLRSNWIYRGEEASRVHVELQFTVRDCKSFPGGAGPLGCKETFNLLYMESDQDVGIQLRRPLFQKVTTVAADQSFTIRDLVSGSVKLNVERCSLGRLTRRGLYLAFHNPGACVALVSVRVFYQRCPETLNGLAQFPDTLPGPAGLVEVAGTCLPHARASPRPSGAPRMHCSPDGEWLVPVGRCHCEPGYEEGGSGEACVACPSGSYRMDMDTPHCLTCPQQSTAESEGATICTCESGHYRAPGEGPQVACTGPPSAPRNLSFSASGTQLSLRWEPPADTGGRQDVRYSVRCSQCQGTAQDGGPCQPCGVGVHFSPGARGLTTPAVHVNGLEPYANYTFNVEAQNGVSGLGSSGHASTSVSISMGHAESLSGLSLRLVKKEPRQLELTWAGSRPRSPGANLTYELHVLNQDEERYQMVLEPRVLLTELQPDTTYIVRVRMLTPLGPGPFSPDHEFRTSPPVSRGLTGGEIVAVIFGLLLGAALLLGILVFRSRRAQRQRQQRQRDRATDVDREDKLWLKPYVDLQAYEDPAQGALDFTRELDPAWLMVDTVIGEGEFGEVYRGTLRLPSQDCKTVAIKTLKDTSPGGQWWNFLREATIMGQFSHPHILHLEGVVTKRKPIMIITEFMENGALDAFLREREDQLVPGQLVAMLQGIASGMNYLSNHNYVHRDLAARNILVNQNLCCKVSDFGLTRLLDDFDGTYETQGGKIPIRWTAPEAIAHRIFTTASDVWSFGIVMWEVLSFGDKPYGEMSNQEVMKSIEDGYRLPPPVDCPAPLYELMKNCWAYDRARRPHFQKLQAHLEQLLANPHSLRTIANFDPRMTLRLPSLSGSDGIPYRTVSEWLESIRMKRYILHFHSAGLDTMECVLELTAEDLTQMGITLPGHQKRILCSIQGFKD", "settings": "at 10 µM"}, "[2]": {"biological_target": "Serine/threonine-protein kinase 16 (Homo sapiens, UniProt O75716)", "sequence (O75716 whole entry)": "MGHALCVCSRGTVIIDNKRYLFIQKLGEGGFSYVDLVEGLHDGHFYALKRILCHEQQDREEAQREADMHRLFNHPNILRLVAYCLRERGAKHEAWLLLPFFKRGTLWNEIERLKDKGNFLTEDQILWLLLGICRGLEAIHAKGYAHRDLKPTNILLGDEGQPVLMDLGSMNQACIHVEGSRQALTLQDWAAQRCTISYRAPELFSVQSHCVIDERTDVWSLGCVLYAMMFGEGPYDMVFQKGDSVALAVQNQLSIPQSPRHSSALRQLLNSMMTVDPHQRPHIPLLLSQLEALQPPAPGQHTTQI", "test": "Selectivity interaction (KinomeScan (DiscoverX)) EUB0001868a STK16", "settings": "at 1 µM"}, "[3]": {"biological_target": "Serine/threonine-protein kinase N2 (Homo sapiens, UniProt Q16513)", "settings": "at 10 µM"}, "[4]": {"biological_target": "T2, Testis-specific serine/threonine-protein kinase 2 (Homo sapiens) (UniProt Q96PF2)", "T2 sequence (whole entry)": "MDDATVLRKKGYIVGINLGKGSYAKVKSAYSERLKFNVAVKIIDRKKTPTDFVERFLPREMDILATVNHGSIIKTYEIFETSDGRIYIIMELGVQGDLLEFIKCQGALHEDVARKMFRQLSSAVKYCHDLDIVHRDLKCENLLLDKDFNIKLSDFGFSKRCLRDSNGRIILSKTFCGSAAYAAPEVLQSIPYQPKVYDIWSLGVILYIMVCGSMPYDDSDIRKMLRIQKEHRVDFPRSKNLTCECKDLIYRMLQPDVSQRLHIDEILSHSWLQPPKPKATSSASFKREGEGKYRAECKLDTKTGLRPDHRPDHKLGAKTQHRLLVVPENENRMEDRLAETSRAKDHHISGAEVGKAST", "test": "Selectivity interaction (Kinase panel (Z-LYTE Assay)) EUB0001632a TSSK2", "settings": "at 10 µM"}, "[5]": {"biological_target": "Serine/threonine-protein kinase WNK2 (Homo sapiens) (UniProt Q9Y3S1)", "sequence (Q9Y3S1 whole entry)": "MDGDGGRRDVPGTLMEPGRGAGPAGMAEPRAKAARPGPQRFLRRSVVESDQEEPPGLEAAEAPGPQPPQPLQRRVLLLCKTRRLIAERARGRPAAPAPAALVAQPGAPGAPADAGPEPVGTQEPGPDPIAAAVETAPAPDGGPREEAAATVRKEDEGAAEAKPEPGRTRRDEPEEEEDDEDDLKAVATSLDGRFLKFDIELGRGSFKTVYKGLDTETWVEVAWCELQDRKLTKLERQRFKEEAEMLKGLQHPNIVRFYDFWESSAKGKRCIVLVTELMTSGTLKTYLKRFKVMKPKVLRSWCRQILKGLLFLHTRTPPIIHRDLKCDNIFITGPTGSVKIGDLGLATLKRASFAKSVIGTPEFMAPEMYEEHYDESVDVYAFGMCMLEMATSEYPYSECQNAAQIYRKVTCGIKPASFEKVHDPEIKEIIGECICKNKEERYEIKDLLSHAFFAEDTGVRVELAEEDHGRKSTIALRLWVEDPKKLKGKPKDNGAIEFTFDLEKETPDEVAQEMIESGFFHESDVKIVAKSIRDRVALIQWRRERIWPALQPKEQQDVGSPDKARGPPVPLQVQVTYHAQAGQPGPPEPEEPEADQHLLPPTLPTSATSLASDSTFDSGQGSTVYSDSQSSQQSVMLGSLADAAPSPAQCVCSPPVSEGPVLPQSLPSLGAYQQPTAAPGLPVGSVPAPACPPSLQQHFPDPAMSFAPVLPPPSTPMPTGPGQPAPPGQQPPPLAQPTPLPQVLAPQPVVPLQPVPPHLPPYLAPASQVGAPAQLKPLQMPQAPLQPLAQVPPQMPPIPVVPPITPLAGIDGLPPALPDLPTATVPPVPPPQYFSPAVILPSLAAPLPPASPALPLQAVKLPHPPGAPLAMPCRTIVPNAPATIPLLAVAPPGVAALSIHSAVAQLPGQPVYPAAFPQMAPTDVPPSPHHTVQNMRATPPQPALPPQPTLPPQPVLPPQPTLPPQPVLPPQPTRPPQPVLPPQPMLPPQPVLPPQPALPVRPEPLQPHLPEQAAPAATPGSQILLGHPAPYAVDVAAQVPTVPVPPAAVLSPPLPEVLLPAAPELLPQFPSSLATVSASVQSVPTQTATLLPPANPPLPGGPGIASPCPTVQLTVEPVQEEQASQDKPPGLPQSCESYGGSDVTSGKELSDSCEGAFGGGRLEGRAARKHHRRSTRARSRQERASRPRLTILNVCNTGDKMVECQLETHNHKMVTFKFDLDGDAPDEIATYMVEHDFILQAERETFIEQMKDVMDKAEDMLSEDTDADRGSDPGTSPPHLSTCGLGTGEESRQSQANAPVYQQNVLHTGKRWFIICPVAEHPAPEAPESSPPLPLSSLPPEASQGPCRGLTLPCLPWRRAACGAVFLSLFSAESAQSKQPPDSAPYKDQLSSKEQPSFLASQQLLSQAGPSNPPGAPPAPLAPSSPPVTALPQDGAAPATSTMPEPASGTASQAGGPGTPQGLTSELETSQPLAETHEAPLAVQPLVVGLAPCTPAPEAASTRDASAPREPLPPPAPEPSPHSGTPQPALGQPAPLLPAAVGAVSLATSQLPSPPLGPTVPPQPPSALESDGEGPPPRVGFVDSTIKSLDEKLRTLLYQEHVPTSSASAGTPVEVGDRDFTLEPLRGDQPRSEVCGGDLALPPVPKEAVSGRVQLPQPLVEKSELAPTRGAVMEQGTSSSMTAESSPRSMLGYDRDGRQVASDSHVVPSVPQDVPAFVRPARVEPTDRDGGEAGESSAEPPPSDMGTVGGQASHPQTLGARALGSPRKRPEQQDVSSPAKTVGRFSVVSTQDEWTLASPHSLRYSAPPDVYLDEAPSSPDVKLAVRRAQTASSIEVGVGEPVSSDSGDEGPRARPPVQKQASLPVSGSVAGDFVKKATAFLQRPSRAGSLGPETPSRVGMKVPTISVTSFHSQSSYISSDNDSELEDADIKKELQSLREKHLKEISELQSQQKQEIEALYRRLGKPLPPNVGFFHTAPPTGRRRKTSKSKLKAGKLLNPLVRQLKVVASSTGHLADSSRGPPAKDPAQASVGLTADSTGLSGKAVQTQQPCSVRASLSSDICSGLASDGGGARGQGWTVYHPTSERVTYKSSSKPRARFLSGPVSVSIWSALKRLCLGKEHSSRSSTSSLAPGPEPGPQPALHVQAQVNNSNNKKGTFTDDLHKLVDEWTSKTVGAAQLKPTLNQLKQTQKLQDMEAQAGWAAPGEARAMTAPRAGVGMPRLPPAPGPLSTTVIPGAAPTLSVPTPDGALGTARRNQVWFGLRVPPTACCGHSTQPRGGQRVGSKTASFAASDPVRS", "test": "Selectivity interaction (ActivX KiNativ screen (kinase selectivity in THP-1 cell lysates)) EUB0000639a WNK2", "assay_type": "subcellular", "settings": "lysate, at 1 µM"}, "[6]": {"biological_target": "Serine/threonine-protein kinase PAK 3 (Homo sapiens) (UniProt O75914)", "test": "Selectivity interaction (SelectScreen profiling (Invitrogen)) EUB0000607a PAK3", "settings": "at 2 µM"}, "[7]": {"biological_target": "Serine/threonine-protein kinase PLK2 (Homo sapiens, UniProt Q9NYY3)", "sequence (Q9NYY3 whole entry, looked up)": "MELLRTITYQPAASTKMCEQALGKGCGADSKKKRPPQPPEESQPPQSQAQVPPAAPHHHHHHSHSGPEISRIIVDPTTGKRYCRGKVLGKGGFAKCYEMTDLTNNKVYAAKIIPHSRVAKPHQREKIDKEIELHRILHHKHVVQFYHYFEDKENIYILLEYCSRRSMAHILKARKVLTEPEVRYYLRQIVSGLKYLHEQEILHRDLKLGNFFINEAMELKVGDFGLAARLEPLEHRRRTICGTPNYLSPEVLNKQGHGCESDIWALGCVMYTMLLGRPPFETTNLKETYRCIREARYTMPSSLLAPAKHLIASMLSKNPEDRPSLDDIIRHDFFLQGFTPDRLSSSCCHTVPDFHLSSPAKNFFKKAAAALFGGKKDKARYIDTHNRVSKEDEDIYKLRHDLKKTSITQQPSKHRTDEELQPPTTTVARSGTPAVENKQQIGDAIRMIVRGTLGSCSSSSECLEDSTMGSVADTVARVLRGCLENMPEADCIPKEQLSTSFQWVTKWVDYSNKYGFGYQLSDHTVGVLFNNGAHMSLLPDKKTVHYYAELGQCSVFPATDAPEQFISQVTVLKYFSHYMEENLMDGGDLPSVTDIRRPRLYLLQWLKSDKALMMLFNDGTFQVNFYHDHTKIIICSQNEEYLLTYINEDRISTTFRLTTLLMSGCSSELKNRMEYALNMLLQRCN", "test": "Selectivity interaction (KinomeScan (DiscoverX)) EUB0000607a PLK2", "settings": "at 10 µM"}, "Misshapen-like kinase 1": {"biological_target": "Misshapen-like kinase 1 (Homo sapiens, UniProt Q8N4C8)", "sequence (Q8N4C8 whole entry, looked up)": "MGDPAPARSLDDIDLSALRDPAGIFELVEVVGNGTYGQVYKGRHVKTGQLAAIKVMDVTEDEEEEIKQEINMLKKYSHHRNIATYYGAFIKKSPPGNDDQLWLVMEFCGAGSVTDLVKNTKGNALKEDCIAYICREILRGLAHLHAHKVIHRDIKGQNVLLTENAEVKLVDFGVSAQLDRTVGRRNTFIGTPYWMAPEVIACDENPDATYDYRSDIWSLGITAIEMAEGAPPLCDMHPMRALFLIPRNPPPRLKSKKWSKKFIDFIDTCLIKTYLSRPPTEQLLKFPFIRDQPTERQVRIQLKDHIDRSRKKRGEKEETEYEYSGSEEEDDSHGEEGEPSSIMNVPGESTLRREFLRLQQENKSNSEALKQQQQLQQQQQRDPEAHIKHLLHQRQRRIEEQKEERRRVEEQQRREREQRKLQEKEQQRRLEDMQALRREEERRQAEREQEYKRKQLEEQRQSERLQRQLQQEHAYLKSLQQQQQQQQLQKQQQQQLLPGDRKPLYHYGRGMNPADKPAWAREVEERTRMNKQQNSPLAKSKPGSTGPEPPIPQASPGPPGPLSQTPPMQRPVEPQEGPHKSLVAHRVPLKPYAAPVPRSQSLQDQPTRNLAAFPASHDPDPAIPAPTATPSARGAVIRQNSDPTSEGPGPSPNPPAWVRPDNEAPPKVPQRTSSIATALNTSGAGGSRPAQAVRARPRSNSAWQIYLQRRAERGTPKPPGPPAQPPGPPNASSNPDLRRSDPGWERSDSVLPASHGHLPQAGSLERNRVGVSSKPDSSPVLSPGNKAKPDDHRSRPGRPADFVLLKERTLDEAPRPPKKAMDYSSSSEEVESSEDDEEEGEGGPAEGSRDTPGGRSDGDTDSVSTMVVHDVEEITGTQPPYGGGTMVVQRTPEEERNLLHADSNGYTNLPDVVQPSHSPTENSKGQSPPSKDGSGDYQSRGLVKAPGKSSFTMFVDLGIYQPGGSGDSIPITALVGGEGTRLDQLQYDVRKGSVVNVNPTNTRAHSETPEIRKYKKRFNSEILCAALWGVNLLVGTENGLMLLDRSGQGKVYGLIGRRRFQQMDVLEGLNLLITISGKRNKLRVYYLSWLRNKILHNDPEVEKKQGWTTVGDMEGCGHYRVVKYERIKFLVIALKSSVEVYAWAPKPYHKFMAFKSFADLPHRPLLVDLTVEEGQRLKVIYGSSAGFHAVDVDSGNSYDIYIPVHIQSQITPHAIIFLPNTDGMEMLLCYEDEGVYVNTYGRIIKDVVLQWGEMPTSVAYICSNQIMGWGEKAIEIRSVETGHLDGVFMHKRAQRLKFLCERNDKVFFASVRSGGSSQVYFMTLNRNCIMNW", "test": "Selectivity interaction (KinomeScan (DiscoverX)) EUB0000695a MINK1", "settings": "at 100 nM"}, "[8]": {"biological_target": "T3, Serine/threonine-protein kinase tousled-like 1 (Homo sapiens) (UniProt Q9UKI8)", "T3 sequence (whole entry)": "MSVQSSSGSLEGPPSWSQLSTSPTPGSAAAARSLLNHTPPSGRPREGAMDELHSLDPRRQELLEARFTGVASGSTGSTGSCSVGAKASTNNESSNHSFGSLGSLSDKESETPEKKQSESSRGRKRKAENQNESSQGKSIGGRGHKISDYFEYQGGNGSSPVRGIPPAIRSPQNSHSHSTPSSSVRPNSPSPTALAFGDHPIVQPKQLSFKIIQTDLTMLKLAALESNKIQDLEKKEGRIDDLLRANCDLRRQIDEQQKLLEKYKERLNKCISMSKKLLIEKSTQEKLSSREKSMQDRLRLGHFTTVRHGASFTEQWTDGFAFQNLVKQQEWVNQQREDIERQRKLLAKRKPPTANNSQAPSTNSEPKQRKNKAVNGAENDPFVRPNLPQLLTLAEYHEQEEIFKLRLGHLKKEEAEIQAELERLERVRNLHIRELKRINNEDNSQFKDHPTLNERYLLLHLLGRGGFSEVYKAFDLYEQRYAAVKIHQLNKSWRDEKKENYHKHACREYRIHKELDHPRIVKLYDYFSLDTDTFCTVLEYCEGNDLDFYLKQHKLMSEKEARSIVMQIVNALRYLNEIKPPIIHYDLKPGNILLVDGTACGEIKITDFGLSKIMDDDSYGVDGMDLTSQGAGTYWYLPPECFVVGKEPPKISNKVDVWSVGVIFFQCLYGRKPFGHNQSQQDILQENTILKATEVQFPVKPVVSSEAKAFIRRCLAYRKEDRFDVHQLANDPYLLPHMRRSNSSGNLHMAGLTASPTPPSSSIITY", "test": "Selectivity interaction (KinomeScan (DiscoverX)) EUB0000695a TLK1", "settings": "at 100 nM"}, "[9]": {"biological_target": "Serine/threonine-protein kinase 25 (Homo sapiens) (UniProt O00506)", "test": "Selectivity interaction (KinomeScan (DiscoverX)) EUB0000595a STK25", "settings": "at 10 µM"}, "[10]": {"test_system": "Hepatocyte growth factor receptor (Homo sapiens), P08581 [M1250T]", "settings": "at 10 µM"}, "[11]": {"test_system": "Tyrosine-protein kinase ABL1 (Homo sapiens), P00519 [Q252H]", "test": "Selectivity interaction (KinomeScan (DiscoverX)) EUB0000045b ABL1", "settings": "at 1 µM"}, "[12]": {"biological_target": "Death-associated protein kinase 3 (Homo sapiens) (UniProt O43293)", "sequence (O43293 whole entry, looked up)": "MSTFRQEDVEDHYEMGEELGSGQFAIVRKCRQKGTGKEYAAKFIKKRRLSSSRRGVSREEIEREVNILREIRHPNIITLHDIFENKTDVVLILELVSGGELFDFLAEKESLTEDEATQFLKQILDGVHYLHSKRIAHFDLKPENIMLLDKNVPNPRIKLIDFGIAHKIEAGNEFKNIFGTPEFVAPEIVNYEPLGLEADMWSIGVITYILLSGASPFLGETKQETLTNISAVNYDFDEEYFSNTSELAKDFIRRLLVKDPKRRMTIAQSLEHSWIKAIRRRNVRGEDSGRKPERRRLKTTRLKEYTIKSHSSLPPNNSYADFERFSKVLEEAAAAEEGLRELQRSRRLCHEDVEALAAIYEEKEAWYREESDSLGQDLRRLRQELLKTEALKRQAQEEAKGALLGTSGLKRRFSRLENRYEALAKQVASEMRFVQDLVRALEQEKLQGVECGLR", "test": "Selectivity interaction (KinomeScan (DiscoverX)) EUB0001619a DAPK3", "settings": "at 1 µM"}, "[13]": {"biological_target": "Tyrosine-protein kinase JAK2 (Homo sapiens, UniProt O60674)", "test": "Selectivity interaction (KinomeScan (DiscoverX)) EUB0001619a JAK2", "settings": "at 1 µM"}}}
{"compound": "CCN(CC)CCCCNc1ncc2cc(-c3cc(OC)cc(OC)c3)c(NC(=O)NC(C)(C)C)nc2n1", "values": [{"measurement": "% of control", "setting": "[1]", "value": 100, "unit": "%"}]}
{"compound": "Cc1cc(-c2ccnc(Nc3cnn(C)c3)n2)ccc1CNC(=O)N1CC(OC(C)C)C1", "values": [{"measurement": "% of control", "setting": "[2]", "value": 23, "unit": "%"}]}
{"compound": "Cc1cc([C@@H](C)Nc2ccccc2C(=O)O)c2nc(N3CCOCC3)cc(=O)n2c1", "note": "[AZD-6482]", "values": [{"measurement": "% of control", "setting": "[3]", "value": 98, "unit": "%"}]}
{"compound": "Cn1cc(-n2cnc3c(NCc4nc5cc(Cl)c(Cl)cc5[nH]4)nc(N4CCOCC4)nc32)cn1", "values": [{"measurement": "% of control", "setting": "[4]", "value": -16.5, "unit": "%"}]}
{"compound": "CC[C@@H]1[C@H](F)C(=O)N[C@@H]1COc1nccc2cc(C(N)=O)c(OC)cc12", "note": "[ZIMLOVISERTIB]", "values": [{"measurement": "% of inhibition", "setting": "[5]", "value": -7.7, "unit": "%"}]}
{"compound": "CNC(=O)Nc1ccc(-c2nc(N3CC4CCC(C3)O4)c3cnn(C4CCC5(CC4)OCCO5)c3n2)cc1", "values": [{"measurement": "% of inhibition", "setting": "[6]", "value": 1, "unit": "%"}, {"measurement": "% of control", "setting": "[7]", "value": 100, "unit": "%"}]}
{"compound": "Cc1cc(F)c(C(=O)Nc2cccc(-c3nncn3C(C)C)n2)cc1-n1cnc(C2CC2)c1", "values": [{"measurement": "% of control", "setting": "Misshapen-like kinase 1", "value": 83, "unit": "%"}, {"measurement": "% of control", "setting": "[8]", "value": 88, "unit": "%"}]}
{"compound": "COCC(=O)NC/C=C/c1ccc2ncnc(Nc3ccc(Oc4ccc(C)nc4)c(C)c3)c2c1", "note": "[CP-724714]", "values": [{"measurement": "% of control", "setting": "[9]", "value": 94, "unit": "%"}, {"measurement": "% of control", "setting": "[10]", "value": 100, "unit": "%"}]}
{"compound": "C=CC(=O)Nc1cc(-n2c(=O)ccc3cnc4ccc(-c5ccc(NS(C)(=O)=O)cc5)cc4c32)ccc1C", "values": [{"measurement": "% of control", "setting": "[11]", "value": 95, "unit": "%"}]}
{"compound": "N#Cc1cccc(-c2c[nH]c3ncnc(N4CCOCC4)c23)c1", "values": [{"measurement": "% of control", "setting": "[12]", "value": 100, "unit": "%"}, {"measurement": "% of control", "setting": "[13]", "value": 71, "unit": "%"}]}
